Assay results taken from patent publication US10196482B2, “Mixed alkyl terminated polyether dendrons” (BASF SE, priority 2014, dated 2019).
Converted amounts (≈) assume the structure as drawn.

Columns and labels:
[1] = Solubilization of actives in 3 wt-% polymer solution (high-throughput, UV/VIS); format: physicochemical
Experimental: Solubilization measurements were carried out with a highthroughput screening robot. This set up dosed 10 mg solid active and […] of the respective 3 wt-% liquid polymer solution (in CIPAC water D) into wells on a micro titer plate. After the addition of stirring bars and 24 hours incubation time the samples were filtrated via polypropylene filters in order to separate dissolved active and its solid form ated. The amount of solubilized active was determined via UV/VIS spectroscopy.

[2] = at 20° C.; cited from earlier work
[3] = 10 mg solid active, without polymer or in 3 wt-% polymer solution in CIPAC water D, 24 hours

N#Cc1nn(-c2c(Cl)cc(C(F)(F)F)cc2Cl)c(N)c1[S+]([O-])C(F)(F)F (centres unmarked) [Fipronil, fipronil]
Solubility of fipronil [1]: 12 pmm

NC(=O)N1c2ccccc2C=Cc2ccccc21 [carbamazepine]
Solubility of carbamazepine [1, 3]: 181 pmm

CC(O)(Cn1cncn1)c1ccc(Oc2ccc(Cl)cc2)cc1C(F)(F)F (centres unmarked) [BAS 750 F, 2-[4-(4-chlorophenoxy)-2-(trifluoromethyl)phenyl]-1-(1H-1,2,4-triazol-1-yl)propan-2-ol]
Solubility of BAS 750 F [1, 3]: 15 pmm

Cn1cc(C(=O)Nc2ccccc2-c2cc(F)c(F)c(F)c2)c(C(F)F)n1 [fluxapyroxad]
Solubility of fluxapyroxad ([1]; 10 mg solid active, alone or in 3 wt-% polymer solution in CIPAC water D, 24 hours): 10 pmm
water solubility [2]: 4 µg/mL (≈ 10.5 µM)
